From EP3698777A1, “COMPOSITION FOR PREVENTING AND TREATING DEPRESSIVE AND COGNITIVE SYMPTOMS” (NEURAXPHARM ITALY S.P.A., priority 2019, dated 2020) come the findings set out here.

The test system of data set [1] is Human microglia cells HMC3. The data set is described as follows: Cell viability test (MTT assay). As to conditions: 24 hours incubation, saffron extract 1 or 3 µg/mL, NAC 200 or 600 µM, fish oil 8.5 or 28.5 µg/mL, Figure 1. In kind it is cell-based. How it is done: Human microglia cells HMC3 (ATCC® CRL-3304™) were cultured in EMEM (Eagle's minimum essential medium) containing 10% FBS (fetal bovine serum) and PSG (1000 U/ml of Penicillin, 10000 ug/ml of Streptomycin, 29.2 mg/ml of L-Glutamine). The HMC3 cells were placed in 96-well plates with a density of 40,000 cells/well and let to adhere overnight in an incubator at 37°C, 5% CO2. The cells were then treated or not with different concentrations of the substances of the invention (saffron extract (1 µg/mL or 3 µg/mL), NAC (200 µM or 600 µM) or fish oil (8.5 µg/mL or 28.5 µg/mL) dissolved in EMEM with 10% FBS). After 24 hours incubation, cell viability was determined by MTT assay. Then, 10 µL of MTT (5 mg/mL solution) were added to the cells and incubated for 1 hour, followed by removal of the medium and dissolution of the crystals formed in 100 µL of isopropanol. Absorbance at 570 nm was measured with a spectrophotometer (SEAC SIRIO S) and the cell viability was expressed as a percentage of untreated control cells.
For orientation: Tetrazolium assays rely on reduction of a dye to a coloured formazan, in cell work by metabolically active cells.

Data set [2] in a line: ORAC test (Oxygen Radical Absorbance Capacity). As to conditions: single ingredients taken at their percentage composition in the combination; combination = 1000 mg fish oil + 600 mg NAC + 30 mg dry saffron extract; Figure 2. How it is done: The ORAC method was used to assess the antioxidant activity of the substances of the invention by measuring the ability to protect the fluorescent probe (fluorescein) from damage due to peroxyl radical generated by spontaneous decomposition of AAPH (2,2'-azobis (2-amidine-propane) dihydrochloride) at 37°C, with consequent loss of fluorescence. The protective effect of the substances of the invention, alone or in combination, was measured by evaluating the longer area of time/fluorescence intensity under the curve (AUC) of the sample compared to the blank (AUC), wherein substances are not present. Trolox was the antioxidant used as the calibration standard, the ORAC results being expressed as Trolox equivalent micromol/gram of sample (i.e. µmol TE/g). […]
The ORAC test was performed by adding 150 µL of working solution with fluorescein to all the microplate wells, followed by the addition of 25 µL of diluted buffer (white), 50 µL of diluted buffer (control), 25 µL of standard (Trolox 6.25 - 50 µM) or 25 µL of the samples prepared before filling the microplate wells. […] The plate was immediately transferred to the plate reader and the fluorescence was measured every minute for 35 minutes. Fluorescence readings refer to the highest reading of the wells in which no AAPH (controls) is added.
The net AUC of the standards and samples were calculated. […]

As to `CC(=O)N[C@@H](CS)C(=O)O` [NAC, N-acetylcysteine], the cell viability result in data set [1] is listed as “do not influence the cell viability”. Besides, in data set [2], the “antioxidant activity (ORAC)” value amounted to 24.04 TE µmol/g.
